Results as given in ChEMBL document CHEMBL3217532, “New analyses of MIC90 data to aid antibacterial drug discovery” (2011).
Values after ≈ are worked out from the molar mass of the structure shown.

test system: Pseudomonas aeruginosa; assay: Antimicrobial activity against Pseudomonas aeruginosa 1611-09; format: functional

| SMILES | MIC90 [µg/mL] |
| --- | --- |
| CC1(C)[C@H](NC(=O)/C(=N\OCc2cc(=O)c(O)cn2O)c2csc(N)n2)C(=O)N1OS(=O)(=O)O | 0.125 (≈ 0.241 µM) |

test system: Pseudomonas aeruginosa; assay: Antimicrobial activity against Pseudomonas aeruginosa 1567-05; format: functional

| SMILES | MIC90 [µg/mL] |
| --- | --- |
| CC1(C)[C@H](NC(=O)/C(=N\OCc2cc(=O)c(O)cn2O)c2csc(N)n2)C(=O)N1OS(=O)(=O)O | 0.5 (≈ 0.964 µM) |

test system: Pseudomonas aeruginosa; assay: Antimicrobial activity against Pseudomonas aeruginosa 1564-05; format: functional

| SMILES | MIC90 [µg/mL] |
| --- | --- |
| CC1(C)[C@H](NC(=O)/C(=N\OCc2cc(=O)c(O)cn2O)c2csc(N)n2)C(=O)N1OS(=O)(=O)O | 0.5 (≈ 0.964 µM) |

test system: Pseudomonas aeruginosa; assay: Antimicrobial activity against Pseudomonas aeruginosa 1765-00; format: functional

| SMILES | MIC90 [µg/mL] |
| --- | --- |
| CC1(C)[C@H](NC(=O)/C(=N\OCc2cc(=O)c(O)cn2O)c2csc(N)n2)C(=O)N1OS(=O)(=O)O | 4 (≈ 7.71 µM) |

test system: Pseudomonas aeruginosa; assay: Antimicrobial activity against Pseudomonas aeruginosa PA-4993; format: functional

| SMILES | MIC90 [µg/mL] |
| --- | --- |
| CC1(C)[C@H](NC(=O)/C(=N\OCc2cc(=O)c(O)cn2O)c2csc(N)n2)C(=O)N1OS(=O)(=O)O | 0.5 (≈ 0.964 µM) |

test system: Pseudomonas aeruginosa; assay: Antimicrobial activity against Pseudomonas aeruginosa 1952-00; format: functional

| SMILES | MIC90 [µg/mL] |
| --- | --- |
| CC1(C)[C@H](NC(=O)/C(=N\OCc2cc(=O)c(O)cn2O)c2csc(N)n2)C(=O)N1OS(=O)(=O)O | 1 (≈ 1.93 µM) |

test system: Pseudomonas aeruginosa; assay: Antimicrobial activity against Pseudomonas aeruginosa PA-4991; format: functional

| SMILES | MIC90 [µg/mL] |
| --- | --- |
| CC1(C)[C@H](NC(=O)/C(=N\OCc2cc(=O)c(O)cn2O)c2csc(N)n2)C(=O)N1OS(=O)(=O)O | 1 (≈ 1.93 µM) |

test system: Pseudomonas aeruginosa; assay: Antimicrobial activity against Pseudomonas aeruginosa 1513-08; format: functional

| SMILES | MIC90 [µg/mL] |
| --- | --- |
| CC1(C)[C@H](NC(=O)/C(=N\OCc2cc(=O)c(O)cn2O)c2csc(N)n2)C(=O)N1OS(=O)(=O)O | 1 (≈ 1.93 µM) |

test system: Pseudomonas aeruginosa; assay: Antimicrobial activity against Pseudomonas aeruginosa 1767-00; format: functional

| SMILES | MIC90 [µg/mL] |
| --- | --- |
| CC1(C)[C@H](NC(=O)/C(=N\OCc2cc(=O)c(O)cn2O)c2csc(N)n2)C(=O)N1OS(=O)(=O)O | 0.5 (≈ 0.964 µM) |

test system: Pseudomonas aeruginosa; assay: Antimicrobial activity against Pseudomonas aeruginosa PA-4997; format: functional

| SMILES | MIC90 [µg/mL] |
| --- | --- |
| CC1(C)[C@H](NC(=O)/C(=N\OCc2cc(=O)c(O)cn2O)c2csc(N)n2)C(=O)N1OS(=O)(=O)O | 1 (≈ 1.93 µM) |

test system: Pseudomonas aeruginosa; assay: Antimicrobial activity against Pseudomonas aeruginosa 1752-00; format: functional

| SMILES | MIC90 [µg/mL] |
| --- | --- |
| CC1(C)[C@H](NC(=O)/C(=N\OCc2cc(=O)c(O)cn2O)c2csc(N)n2)C(=O)N1OS(=O)(=O)O | 1 (≈ 1.93 µM) |

test system: Pseudomonas aeruginosa; assay: Antimicrobial activity against Pseudomonas aeruginosa PA-4999; format: functional

| SMILES | MIC90 [µg/mL] |
| --- | --- |
| CC1(C)[C@H](NC(=O)/C(=N\OCc2cc(=O)c(O)cn2O)c2csc(N)n2)C(=O)N1OS(=O)(=O)O | 1 (≈ 1.93 µM) |

test system: Pseudomonas aeruginosa; assay: Antimicrobial activity against Pseudomonas aeruginosa PA-75; format: functional

| SMILES | MIC90 [µg/mL] |
| --- | --- |
| CC1(C)[C@H](NC(=O)/C(=N\OCc2cc(=O)c(O)cn2O)c2csc(N)n2)C(=O)N1OS(=O)(=O)O | 0.5 (≈ 0.964 µM) |

test system: Pseudomonas aeruginosa; assay: Antimicrobial activity against Pseudomonas aeruginosa 1515-08; format: functional

| SMILES | MIC90 [µg/mL] |
| --- | --- |
| CC1(C)[C@H](NC(=O)/C(=N\OCc2cc(=O)c(O)cn2O)c2csc(N)n2)C(=O)N1OS(=O)(=O)O | 1 (≈ 1.93 µM) |

test system: Pseudomonas aeruginosa; assay: Antimicrobial activity against Pseudomonas aeruginosa PA-4624; format: functional

| SMILES | MIC90 [µg/mL] |
| --- | --- |
| CC1(C)[C@H](NC(=O)/C(=N\OCc2cc(=O)c(O)cn2O)c2csc(N)n2)C(=O)N1OS(=O)(=O)O | 1 (≈ 1.93 µM) |

test system: Pseudomonas aeruginosa; assay: Antimicrobial activity against Pseudomonas aeruginosa 1569-05; format: functional

| SMILES | MIC90 [µg/mL] |
| --- | --- |
| CC1(C)[C@H](NC(=O)/C(=N\OCc2cc(=O)c(O)cn2O)c2csc(N)n2)C(=O)N1OS(=O)(=O)O | 1 (≈ 1.93 µM) |

test system: Pseudomonas aeruginosa; assay: Antimicrobial activity against Pseudomonas aeruginosa 1953-00; format: functional

| SMILES | MIC90 [µg/mL] |
| --- | --- |
| CC1(C)[C@H](NC(=O)/C(=N\OCc2cc(=O)c(O)cn2O)c2csc(N)n2)C(=O)N1OS(=O)(=O)O | 1 (≈ 1.93 µM) |

test system: Pseudomonas aeruginosa; assay: Antimicrobial activity against Pseudomonas aeruginosa 1509-08; format: functional

| SMILES | MIC90 [µg/mL] |
| --- | --- |
| CC1(C)[C@H](NC(=O)/C(=N\OCc2cc(=O)c(O)cn2O)c2csc(N)n2)C(=O)N1OS(=O)(=O)O | 2 (≈ 3.86 µM) |

test system: Pseudomonas aeruginosa; assay: Antimicrobial activity against Pseudomonas aeruginosa 1614-09; format: functional

| SMILES | MIC90 [µg/mL] |
| --- | --- |
| CC1(C)[C@H](NC(=O)/C(=N\OCc2cc(=O)c(O)cn2O)c2csc(N)n2)C(=O)N1OS(=O)(=O)O | 0.5 (≈ 0.964 µM) |

test system: Pseudomonas aeruginosa; assay: Antimicrobial activity against Pseudomonas aeruginosa 1955-00; format: functional

| SMILES | MIC90 [µg/mL] |
| --- | --- |
| CC1(C)[C@H](NC(=O)/C(=N\OCc2cc(=O)c(O)cn2O)c2csc(N)n2)C(=O)N1OS(=O)(=O)O | 0.5 (≈ 0.964 µM) |

test system: Pseudomonas aeruginosa; assay: Antimicrobial activity against Pseudomonas aeruginosa 1760-00; format: functional

| SMILES | MIC90 [µg/mL] |
| --- | --- |
| CC1(C)[C@H](NC(=O)/C(=N\OCc2cc(=O)c(O)cn2O)c2csc(N)n2)C(=O)N1OS(=O)(=O)O | 1 (≈ 1.93 µM) |

test system: Pseudomonas aeruginosa; assay: Antimicrobial activity against Pseudomonas aeruginosa PA-4990; format: functional

| SMILES | MIC90 [µg/mL] |
| --- | --- |
| CC1(C)[C@H](NC(=O)/C(=N\OCc2cc(=O)c(O)cn2O)c2csc(N)n2)C(=O)N1OS(=O)(=O)O | 0.5 (≈ 0.964 µM) |

test system: Pseudomonas aeruginosa; assay: Antimicrobial activity against Pseudomonas aeruginosa 1527-08; format: functional

| SMILES | MIC90 [µg/mL] |
| --- | --- |
| CC1(C)[C@H](NC(=O)/C(=N\OCc2cc(=O)c(O)cn2O)c2csc(N)n2)C(=O)N1OS(=O)(=O)O | 1 (≈ 1.93 µM) |

test system: Pseudomonas aeruginosa; assay: Antimicrobial activity against Pseudomonas aeruginosa 1526-08; format: functional

| SMILES | MIC90 [µg/mL] |
| --- | --- |
| CC1(C)[C@H](NC(=O)/C(=N\OCc2cc(=O)c(O)cn2O)c2csc(N)n2)C(=O)N1OS(=O)(=O)O | 0.5 (≈ 0.964 µM) |

test system: Pseudomonas aeruginosa; assay: Antimicrobial activity against Pseudomonas aeruginosa 1521-08; format: functional

| SMILES | MIC90 [µg/mL] |
| --- | --- |
| CC1(C)[C@H](NC(=O)/C(=N\OCc2cc(=O)c(O)cn2O)c2csc(N)n2)C(=O)N1OS(=O)(=O)O | 2 (≈ 3.86 µM) |
